What was measured:
[1] = tested on: low-molecular-weight heparin, Fragmine® (anti-Xa activity, factor Xa); assay: Evaluation of neutralization of low-molecular-weight heparin by enzyme substrates (anti-Xa activity); format: biochemical
From the text: (§1) Before referring to the diagrams of the figures, the evaluation method used to quantify the neutralizing effect of the proteolytic enzyme substrates with respect to the glycosaminoglycans in a blood sample, and in particular a plasma, will be described. This evaluation method makes it possible to use both unfractionated heparins and low-molecular-weight heparins. In addition, the method endeavors to test the activity of factor Xa, located at the crossroads of two enzymatic cascades resulting in the formation of thrombin. Moreover, antithrombin, which is a natural inhibitor of thrombin generation, controls the reaction. As soon as it appears, factor Xa couples to its natural substrate, prothrombin, so as to form thrombin. The heparin contained in the sample forms, itself, a complex with antithrombin, which complex promotes the inhibition of factor Xa.
Thus, a chromogenic substrate based on para-nitroaniline, which factor Xa hydrolyzes, is used and the release of the para-nitroaniline, which can be measured optically, is then inversely proportional to the concentration of heparin present in the medium. A measurement of the anti-Xa activity is thus deduced therefrom.
More specifically, the percentage neutralization by the substrate is determined as being the ratio of the difference in the variation in anti-Xa activity in the medium containing the physiological saline and in the medium containing the substrate, between two heparin concentrations, and only the variation in activity in the medium containing the physiological saline, between the same two heparin concentrations, this ratio being multiplied by 100 in order to obtain the result as percentage neutralization.
The percentage neutralization can also be written more compactly: 100×(1−ΔA1/ΔA2), wherein ΔA1 corresponds to the variation in activity in the presence of substrate and ΔA2 to the variation in the presence of physiological saline. Thus, the parallel measurement of the variation in the presence of physiological saline makes it possible to establish the reference in each series of measurements.
Still in this first part of the description, the abovementioned evaluation method was implemented with a low-molecular-weight heparin, Fragmine®.
The results of the percentage neutralization of this heparin for the three substrate variants described above, V(1), V(2) and V(3), have been reported in the table below.

[2] = tested on: unfractionated calcium heparin Calciparine® (anti-Xa activity, factor Xa); assay: Evaluation of neutralization of unfractionated heparin by enzyme substrates (anti-Xa activity, para-nitroaniline chromogenic substrate); format: biochemical; settings: FIG. 1, qualitative
From the text: as §1
Thus, a chromogenic substrate based on para-nitroaniline, which factor Xa hydrolyzes, is used and the release of the para-nitroaniline, which can be measured optically, is then inversely proportional to the concentration of heparin present in the medium. […]
In this first example, the heparin used is an unfractionated calcium heparin sold under the brand name: “Calciparine®”. According to the evaluation method, the anti-Xa activity is recorded and transferred onto the y-axis, as a function of the heparin concentration of the medium. […]

percentage neutralization ([1]; Fragmine® 0.42 IU/ml) [%]	percentage neutralization ([1]; Fragmine® 0.83 IU/ml) [%]	percentage neutralization ([1]; Fragmine® 1.25 IU/ml) [%]	percentage neutralization ([1]; Fragmine® 1.67 IU/ml) [%]	Substance	effect of substrate with respect to heparin (curve compared with physiological saline) [2]
10	12	13	15	EtM-VR-Rhod110-Ac [V(1)]	–
–	–	–	–	Z-GGR-AMC	no notable effect with respect to heparin
